Like-named read-outs stand apart in the source and are kept apart here.

The assay deals with T1, NR1/NR2A (Homo sapiens, UniProt Q05586+Q12879).
T1 construct: host or cells: HEK293 (tetracycline-inducible NR2A expression)
Briefly: FDSS Ca2+ influx inhibition assay in HEK293 cells expressing NR1/NR2A. Format: cell-based. The protocol: Cell Culture and plating: HEK293 cells expressing NR1/NR2A (Chantest, Cleveland, Ohio) were grown to 70-80% confluency as an adherent monolayer in standard tissue culture flasks at 37° C., 5% CO2 per supplier's instructions.
After induction, cell culture medium was removed and cells were rinsed once with Ca^2+ and Mg^2+-free Dulbecco's phosphate buffered saline. Cells were then removed from the flask using TrypLE™ Express (Life Technologies) according to the manufacturer's instructions and collected to 50 ml centrifuge tubes. Following two washes in Ca^27 Mg^2′-free HBSS with 20 mM HEPES (HHnoCa), cells were counted and viability assessed using trypan blue. To load cells with Ca^2′-sensitive dye, they were resuspended in fluo-8 plus Component B (AAT Bioquest Products) diluted in HHnoCa and incubated 15 minutes at 37° C., followed by 30 minutes at room temp (in dark). Cells were then washed and resuspended in HHnoCa to remove extracellular dye and plated in 384-well plates (Falcon, uncoated) at 20,000-30,000 cells/well in a final volume of 25 μL/well.
FDSS Assay: To each well of the plate, 10 μLtest compound, control (MK801) or HHnoCa buffer was added to a final concentration of 10 μM with a final concentration of DMSO of 0.1%. Following 10 minutes pre-incubation in the dark, plates are loaded onto the Hamamatsu FDSS 6000. After collecting baseline fluorescence images, 3 μM glutamate, 3 μM glycine, and 1 mM Ca^2+ in HHnoCa buffer is added to each well, and Ca^2+ is recorded for 3 minutes. Data were processed by computing ratio of fluorescence at the end of data collection to baseline fluorescence to assess degree of Ca^2+ influx inhibition relative to that observed in MK801.

Where [1] appears, read: 3 μM glutamate, 3 μM glycine, 1 mM Ca2+, Ca2+ influx inhibition relative to MK801, read-out: NR2A IC50.

T1 sequence (Q12879 23-1464, other chains not shown): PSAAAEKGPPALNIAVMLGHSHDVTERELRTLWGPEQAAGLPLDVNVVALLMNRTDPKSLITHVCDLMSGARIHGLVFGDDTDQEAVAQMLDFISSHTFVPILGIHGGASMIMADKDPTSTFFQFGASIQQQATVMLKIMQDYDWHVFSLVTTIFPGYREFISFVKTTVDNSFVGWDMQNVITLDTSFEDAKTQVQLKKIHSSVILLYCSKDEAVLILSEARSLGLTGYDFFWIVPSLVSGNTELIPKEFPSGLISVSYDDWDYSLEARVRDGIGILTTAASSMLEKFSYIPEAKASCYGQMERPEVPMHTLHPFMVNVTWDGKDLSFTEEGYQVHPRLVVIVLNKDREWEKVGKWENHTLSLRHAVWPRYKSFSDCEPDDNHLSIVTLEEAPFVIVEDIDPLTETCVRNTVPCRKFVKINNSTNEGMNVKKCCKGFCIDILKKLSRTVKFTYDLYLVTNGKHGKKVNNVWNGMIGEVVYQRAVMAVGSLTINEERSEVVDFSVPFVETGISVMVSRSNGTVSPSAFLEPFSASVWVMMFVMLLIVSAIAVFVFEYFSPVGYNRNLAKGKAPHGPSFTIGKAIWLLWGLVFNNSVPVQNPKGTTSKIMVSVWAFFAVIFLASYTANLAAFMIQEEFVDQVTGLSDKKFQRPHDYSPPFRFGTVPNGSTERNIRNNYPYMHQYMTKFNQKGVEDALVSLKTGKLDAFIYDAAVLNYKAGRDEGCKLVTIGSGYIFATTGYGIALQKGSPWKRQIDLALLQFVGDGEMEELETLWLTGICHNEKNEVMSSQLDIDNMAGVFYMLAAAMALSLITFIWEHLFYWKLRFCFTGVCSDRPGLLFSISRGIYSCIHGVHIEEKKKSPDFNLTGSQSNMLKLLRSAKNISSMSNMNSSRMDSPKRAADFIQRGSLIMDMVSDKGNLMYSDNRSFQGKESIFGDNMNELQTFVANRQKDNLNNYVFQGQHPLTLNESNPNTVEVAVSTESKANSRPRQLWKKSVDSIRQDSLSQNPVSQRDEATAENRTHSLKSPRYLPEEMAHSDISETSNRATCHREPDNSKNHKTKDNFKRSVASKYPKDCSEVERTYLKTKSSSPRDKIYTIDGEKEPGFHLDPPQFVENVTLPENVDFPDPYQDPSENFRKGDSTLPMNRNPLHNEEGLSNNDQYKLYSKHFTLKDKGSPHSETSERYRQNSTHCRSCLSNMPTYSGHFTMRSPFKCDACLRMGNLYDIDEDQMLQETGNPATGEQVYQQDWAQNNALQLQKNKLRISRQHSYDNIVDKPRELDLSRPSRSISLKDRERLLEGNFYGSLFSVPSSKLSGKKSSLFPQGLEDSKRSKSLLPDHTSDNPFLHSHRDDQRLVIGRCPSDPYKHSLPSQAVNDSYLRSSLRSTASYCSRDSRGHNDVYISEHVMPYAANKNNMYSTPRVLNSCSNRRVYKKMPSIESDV

Turning to `O=C(NCc1cncs1)c1ccc(CNS(=O)(=O)c2ccc(F)c(Cl)c2)cn1` [5-(3-chloro-4-fluorobenzenesulfon-amidomethyl)-N-(1,3-thiazol-5-ylmethyl)pyridine-2-carboxamide], under setting [1], the IC50 came out at 0.347 µM.
Consider `Cc1ncc(CNC(=O)c2cnc(CNS(=O)(=O)c3cccs3)cn2)s1` [N-[(2-methyl-1,3-thiazol-5-yl)methyl]-5-(thiophene-2-sulfonamidomethyl) pyrazine-2-carboxamide], for which the IC50 under setting [1] stood at 3.77 µM.
Regarding `Cc1csc(CNC(=O)c2cnc(CNS(=O)(=O)c3ccc(F)c(Cl)c3)cn2)n1` [5-(3-chloro-4-fluorobenzenesulfon-amidomethyl)-N-[(4-methyl-1,3-thiazol-2-yl)methyl]pyrazine-2-carboxamide], the IC50 by setting is: under setting [1], at least 10 µM; (binned NR2A inhibition concentration, read-out: Binned Activity) over 10 µM.
